Assays:
Assay type in all cases: in vivo, Wistar rats
[1] = tested on: P-p38 MAPK; assay: Western blotting, retinal P-p38 MAPK after I/R; conditions: intravitreal 2 nmole 15 min before ischemia, I/R 24 h
Experimental: Intravitreal injections were performed using a 30-gauge needle attached to a 25 μl syringe after pupil dilation with 1% tropicamide and 2.5% phenylephrine. In certain instances, intravitreal injections of 4 μl of 2 nmole SB203580 (Calbiochem, San Diego, Calif.) or vehicle (an equal volume of DMSO) were performed on ischemic eyes fifteen minutes before pressure-induced retinal ischemia.
One day following retinal ischemia with preadministration of relevant compounds or following a sham procedure, the animals were sacrificed. Retinal samples were retrieved and sonicated in a lysis buffer, mammalian protein extraction reagent (Pierce, Ill.).

[2] = tested on: MMP-9; assay: Western blotting, retinal MMP-9 after I/R; conditions: intravitreal 2 nmole 15 min before ischemia, I/R 24 h
[3] = tested on: MMP-9; assay: Gel zymography, retinal MMP-9 activity after I/R; conditions: intravitreal 2 nmole 15 min before ischemia, 24 h after ischemia

How did the P-p38/β-actin protein ratio [1] turn out when `C[S+]([O-])c1ccc(-c2nc(-c3ccncc3)c(-c3ccc(F)cc3)[nH]2)cc1` (stereo not drawn) [SB203580] was run?
The P-p38/β-actin protein ratio was 0.23 ± 0.05.

What about the “MMP-9/β-actin protein ratio (Western blotting)” value [2] of the same compound?
The value was 0.31 ± 0.10.

What about the “MMP-9/β-actin (gel zymography, MMP-9 activity)” value [3] of the same compound?
The value was 1.49 ± 0.21.

From patent US20170151295A1, “USE OF CHI-JU-DI-HUANG-WAN IN TREATING RETINAL ISCHEMIA OR A DISEASE, CONDITION, OR DISORDER ASSOCIATED WITH RETINAL ISCHEMIA” (priority 2015, published 2017)
